Assay results as given in patent US20090220982A1, “COMPOSITIONS AND METHODS FOR DETERMINING NEPHROTOXICITY” (Achaogen Inc.., priority 2008, published 2009).
Like-named read-outs stand apart in the source and are kept apart here.

What was measured:
[1] = co-therapy with gentamicin, guinea pigs; cited from earlier work
[2] = β-thalassemia patients; cited from earlier work
[3] = cited from earlier work
[4] = test system: erythrocytes; settings: cited from earlier work
[5] = cited from earlier work; remark: listed apart in the source
[6] = 14-day rat nephrotoxicity model
Description: The rat in vivo assays provided information in the form of acute toxicity, changes in Blood Urea Nitrogen (BUN) and serum creatinine levels over time, as well as histopathology changes in the kidneys of animals sacrificed at the end of the study. Elevation in BUN or serum creatinine is one of the markers routinely monitored in the clinic as an indication of aminoglycoside nephrotoxicity.

[7] = rats, cited from earlier work
[8] = test system: renal brush border membranes; settings: in vitro; cited from earlier work
[9] = patients, cited from earlier work
[10] = test system: HK-2 cells; experiment: HK-2 in vitro nephrotoxicity assay (CASPASEGLO caspase luminescence); type: cell-based, human
Procedure: An in vitro nephrotoxicity assay was conducted using the human kidney epithelial cell line, HK-2.
HK-2 cells were cultured in KSFM, with 5 ng/mL epidermal growth factor (EGF) and 0.05 mg/mL bovine pituitary extract (BPE). Cells were maintained at sub-confluence and used to initiate the assay when they reached 80% confluence.
Diluted compounds were added to plates. The plates were subsequently returned to the incubator overnight.
Luminescence was detected using a plate reading luminometer.
A human kidney proximal tubule cell line, HK-2 (ATCC #CRL-2190) is cultured in Keratinocyte-Serum Free Medium (K-SFM) (Invitrogen 17005-042) with 5 ng/mL of human recombinant epidermal growth factor (EGF) and 0.05 mg/mL Bovine Pituitary Extract (BPE). Culture medium containing EGF and/or BPE is not filtered subsequent to growth factor addition, and fresh growth factors are added to the culture medium after two weeks. The HK-2 cells are split so that they are 80% confluent on the day they need to be plated into 96 well plates. These cells are not allowed to become confluent.
Remove the HK-2 cells from the plate using trypsin-EDTA. Wash the plate with D-PBS. Add 0.5 mL trypsin, and incubate for 1 minute at room temperature or until cells start to lift off plate. Inactivate trypsin and harvest cells by adding prewarmed culture medium (37° C.) to the plate. […]
Thaw the CASPASEGLO reagents (CASPASEGLO 3/7 Assay, Promega G8093 10×10 mL or G8092 100 mL) at room temperature. For reagent addition to plates after 31 hour compound incubation: (i) remove plates from incubator (30.5 hours after adding compounds) for approximately 30 minutes to bring to room temperature; (ii) mix CASPASEGLO reagents according to manufacturer's instructions; (iii) add 50 μL of reagent/well to 96 well plates using BioMek®FX with tips 2 mm from bottom of reservoir well (Beckman Coulter); (iv) place plates on shaker platform and shake gently for 30 seconds; (v) incubate at room temperature for 30 minutes; (vi) place plates on shaker platform and shake gently for 30 seconds; and (vii) read plate 30-60 minutes after reagents are added, Analyst™ HT (LJL Biosystems™). The settings for the Analyst™ HT are: (i) default luminescence method; (ii) luminescence height, 1.5 mm; (iii) 5 readings per well; (iv) integration time of 100000 μs; and (v) attenuator out.
The average luminescence values are calculated along with the standard deviation of the replicates. The concentration of the aminoglycoside tested is graphed versus the corresponding luminescence reading. The area under the curve (AUC) is calculated for each experimental compound and for gentamicin. The EC50 can then be calculated for each experimental compound and gentamicin, using methods well known in the art.

[11] = test system: LLC-PK1 cells; settings: gentamicin introduced by electroporation; cited from earlier work

## O=C(O)c1cccc(O)c1O [DHB, 2,3-dihydroxybenzoate]
[1]
  shifts in auditory thresholds: significantly lower shifts in auditory thresholds
[2]
  toxicity of oral doses for one year: no toxicity was observed
[3]; rat, gentamicin treatment for eight days
  elevations in BUN and serum creatinine after gentamicin: reduced elevations in blood, urea, nitrogen (BUN) and serum creatinine
[3]; rats
  protection from gentamicin nephrotoxicity: only partial protection from gentamicin nephrotoxicity
[4]
  H2O2 induced membrane peroxidation: inhibits H2O2 induced membrane peroxidation in erythrocytes
[5]
  solubility in aqueous solution: poor solubility in aqueous solution

## [H]/N=C(/N)N[C@H]1[C@H](O)[C@@H](O)[C@H](O[C@@H]2O[C@@H](C)[C@](O)(C=O)[C@H]2O[C@@H]2O[C@@H](CO)[C@H](O)[C@@H](O)[C@@H]2NC)[C@@H](N/C(N)=N\[H])[C@@H]1O [streptomycin]
[6]; rat, in vivo
  rank order of relative in vivo nephrotoxicity: least nephrotoxic aminoglycoside tested

## polyaspartic acid
[7]; 16 weeks after the two week treatment
  creatinine elevation or histopathological changes: no creatinine elevation or histopathological changes
[7]; end of 14 day treatment, co-dosed with polyaspartic acid
  gentamicin concentration in kidneys versus gentamicin alone: five-fold higher gentamicin concentration in their kidneys
[8]
  aminoglycoside binding to renal brush border membranes: prevent aminoglycoside binding to renal brush border membranes

## CC(=O)Oc1ccccc1C(=O)O [aspirin]
[9]; intravenous gentamicin and oral aspirin
  hearing loss versus gentamicin alone: significantly less hearing loss
[9]
  side effect of aspirin treatment: caused gastric bleeding in some patients

## NCC[C@H](O)C(=O)N[C@@H]1C[C@H](N)[C@@H](O[C@H]2O[C@H](CN)[C@@H](O)[C@H](O)[C@H]2O)[C@H](O)[C@H]1O[C@H]1O[C@H](CO)[C@@H](O)[C@H](N)[C@H]1O [amikacin]
[10]
  dose response curve of luminescence signal (induction of apoptosis) / EC50: did not produce a maximal response at the highest concentration tested
  rank order of nephrotoxicity by EC50 in the in vitro HK-2 assay: least nephrotoxic aminoglycoside tested
[6]; rat, in vivo
  rank order of relative in vivo nephrotoxicity: followed by amikacin, neomycin, and gentamicin

## gentamicin
[10]; HK-2 cells, highest concentration tested 500 μg/mL, FIG. 2
  dose response curve of luminescence signal (induction of apoptosis) / EC50: produced a full dose response curve over the concentration range tested
[10]; six compounds, FIG. 3A
  rank order of nephrotoxicity by EC50 in the in vitro HK-2 assay: followed by apramycin, gentamicin and neomycin, compound A, and compound B
[11]
  apoptosis response: dose-dependent apoptosis response at much lower gentamicin concentrations
[6]; 14-day rat model, Example 3, FIG. 4
  rank order of relative in vivo nephrotoxicity: followed by amikacin, neomycin, and gentamicin
[6]; 14-day rat model, six compounds, FIG. 3A
  rank order of nephrotoxicity by minimum concentration of compound that produced an increase in BUN: followed by apramycin, gentamicin and neomycin, compound A, and compound B
